Measured values taken from US20240294499A1, “TARGETED PROTEIN DEGRADATION USING BIFUNCTIONAL COMPOUNDS THAT BIND UBIQUITIN LIGASE AND TARGET MCL-1 PROTEIN” (Captor Therapeutics S.A., priority 2021, published 2024).

What was measured:
MCL-1 protein = MCL-1 protein (Homo sapiens, UniProt Q07820); test: OPM-2 cells: MCL-1 protein degradation, Western blot; type: cell-based; set-up: endogenous in cells; host or cells: OPM-2; settings: OPM-2 cell line, 6 h treatment, 100 nM compound, vs DMSO
Source text: The effect of various compounds of the invention and the reference compounds on MCL-1 protein degradation in the OPM-2 cell line was investigated, using the degradation assay protocol below.
OPM-2 cells were maintained in RPMI-1640 medium, supplemented with penicillin/streptomycin and 10% Fetal Bovine Serum (FBS). During the treatment, FBS concentration was reduced to 1%.
Compound stocks were pre-diluted in DMSO and added directly to the cells growth medium (final DMSO concentration: 0.5%).
OPM-2 cells were collected, centrifuged (250 rcf, 5 min), resuspended in a growth medium containing 1% FBS and counted. The cell suspension was then adjusted to 1×10^6 cell/ml using a growth medium containing 1% FBS. Afterwards, 0.5×10^6 cells were seeded on 24-well plates in 0.5 mL of medium per well. Immediately after seeding cells, compounds in appropriate concentrations were added to the cell culture medium.
Following the treatment with the compounds, cells were collected from the plates and suspended in a lysis buffer (2% SDS, 50 mM Tris, pH 8.0, 100 U/ml Pierce Universal Nuclease for Cell Lysis, complete EDTA-free Protease Inhibitor Cocktail) and incubated on ice for 45 min. The amount of protein was determined via BCA assay, and the equal quantity of each sample was loaded on the precast gel for the protein separation. Following the electrophoresis and transfer to the membrane, the membrane was stained with Ponceau (0.1% (w/v) Ponceau in 5% acetic acid). After total protein detection, the stain was washed out using TBST. After the antibody staining for MCL-1 and α-tubulin, the membranes were washed and signals developed.
Densitometric values for MCL-1 were normalized to total protein level (the Ponceau Staining). [%] of protein reduction is calculated in comparison to the cells treated with DMSO, which stand for 0%.
The results for the 6 h treatment with 100 nM compounds are shown in Table 9, using the following labels: • <30% for 0-29% of MCL-1 protein reduction, • ≥30% for 30-49% of MCL-1 protein reduction, • ≥50% for 50-100% of MCL-1 protein reduction.

[1] = test system: hiPSC-CM (iCELL Cardiomyocytes); test: Cardiac safety: hiPSC-CM cell viability assay (CTG); type: cell-based, human; settings: for IC50: Homo sapiens, Cardiomyocyte, 336 h, viability, CTG assay, treatment until day 14, read-out: Average pIC50 by molecule hiPSC-CM (converted); for activity in viability assay in cardiomyocytes: as opposed to reference compounds MIK665 and AZD5991
Source text: The effect of various compounds of the invention and a reference compounds AZD5991 and MIK665 on cardiac safety was investigated by the evaluation of viability with CTG assay (Promega; cat #G7572) in iCELL™ Cardiomyocytes from FUJIFILM Cellular Dynamics (Catalog number: 11713).
Cells were thawed, counted using an automated cell counter (TC20, Bio-Rad) and seeded in 96 well plates (Greiner-BioOne; 655098) previously coated with 0.1% gelatin (Sigma-Aldrich; G1890) using Plating Medium (#M1001) following the instructions of the iCELL cardiomyocytes User Guide. Forty ml of Plating Medium was used to equally distribute the cells in four 96 well plates. Cells were then placed in the incubator at 37° C., 5% CO2 and left undisturbed for 48 hours. Compounds were serially diluted in DMSO and then further diluted to final assay concentration using maintenance medium (#M1003). Final DMSO concentration was 0.5%. Forty eight hours after plating, non-adherent cells and debris were washed as described in the User Guide. Plating medium was then replaced with maintenance medium containing diluted compounds or DMSO (as control). Medium was then changed every 2 days with fresh medium containing compounds or DMSO until the end of the treatment. On day 14, only medium without compounds was used immediately before the CTG assay. Luminescence signal was measured using a CLARIOstar Plus Multi-Mode Microplate Reader (574-590 nm).

[2] = molecular target: [MCL-1]-[compound of formula (I)]-[CRBN/DDB1] complex (Homo sapiens, UniProt Q07820+Q96SW2); test: HTRF ternary complex assay; type: binding; settings: ternary complex formation; read-out: HTRF ternary complex Average pEC50 by molecule (converted)
How it was run: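 hMcl-1 and CRBN (mix at 48 nM and 105.6 nM) with Streptavidin-Eu cryptate and anti-6×His-d2 in PPI Europium buffer with 2 mM DTT; compounds in dose-response, 0.5% DMSO. Incubated 180 min at 25° C, TR-FRET 665/620 read. Bell-shaped curve fitted by Gaussian; EC50 reported.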

MV-4-11 cells = test: Cell viability assay (CellTiter-Glo), MV-4-11; type: cell-based; settings: Homo sapiens, MV4-11, 24 hours incubation, 1% FBS, read-out: Average pIC50 by molecule MV-4-11 (converted)
How it was run: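 OPM-2, MV-4-11 and ARH-77 cells were grown in medium with 1% FBS and treated with compound in 1/3 dilutions from 30 uM (9–12 points, 0.5% DMSO). Viability was read by CellTiter-Glo luminescence after 24 hours and normalized to DMSO control.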

Chain of MCL-1 protein (Q07820 whole entry): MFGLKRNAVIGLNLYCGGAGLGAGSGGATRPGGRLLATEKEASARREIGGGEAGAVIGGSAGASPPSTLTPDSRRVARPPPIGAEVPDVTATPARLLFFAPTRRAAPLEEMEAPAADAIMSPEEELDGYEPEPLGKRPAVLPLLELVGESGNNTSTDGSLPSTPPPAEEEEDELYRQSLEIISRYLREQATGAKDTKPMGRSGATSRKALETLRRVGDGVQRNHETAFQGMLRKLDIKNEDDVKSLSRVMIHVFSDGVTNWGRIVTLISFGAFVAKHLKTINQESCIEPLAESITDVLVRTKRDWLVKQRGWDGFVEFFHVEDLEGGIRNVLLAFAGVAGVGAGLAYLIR
Chain of [MCL-1]-[compound of formula (I)]-[CRBN/DDB1] complex (Q07820 whole entry): as above
Chain of [MCL-1]-[compound of formula (I)]-[CRBN/DDB1] complex (Q96SW2 whole entry): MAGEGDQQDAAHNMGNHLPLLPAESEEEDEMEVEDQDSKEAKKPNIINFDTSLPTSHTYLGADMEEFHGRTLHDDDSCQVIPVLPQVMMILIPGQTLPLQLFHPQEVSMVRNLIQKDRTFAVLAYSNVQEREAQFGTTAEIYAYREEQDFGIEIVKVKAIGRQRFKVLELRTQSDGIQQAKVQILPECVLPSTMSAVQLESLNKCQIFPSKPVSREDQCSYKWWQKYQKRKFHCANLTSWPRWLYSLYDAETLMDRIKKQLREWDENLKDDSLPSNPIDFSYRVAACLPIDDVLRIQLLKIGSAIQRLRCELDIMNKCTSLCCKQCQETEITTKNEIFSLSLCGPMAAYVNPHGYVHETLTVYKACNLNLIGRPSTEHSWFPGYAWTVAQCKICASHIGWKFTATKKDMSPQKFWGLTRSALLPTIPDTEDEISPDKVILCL
Chain of [MCL-1]-[compound of formula (I)]-[CRBN/DDB1] complex (Q16531 whole entry partner): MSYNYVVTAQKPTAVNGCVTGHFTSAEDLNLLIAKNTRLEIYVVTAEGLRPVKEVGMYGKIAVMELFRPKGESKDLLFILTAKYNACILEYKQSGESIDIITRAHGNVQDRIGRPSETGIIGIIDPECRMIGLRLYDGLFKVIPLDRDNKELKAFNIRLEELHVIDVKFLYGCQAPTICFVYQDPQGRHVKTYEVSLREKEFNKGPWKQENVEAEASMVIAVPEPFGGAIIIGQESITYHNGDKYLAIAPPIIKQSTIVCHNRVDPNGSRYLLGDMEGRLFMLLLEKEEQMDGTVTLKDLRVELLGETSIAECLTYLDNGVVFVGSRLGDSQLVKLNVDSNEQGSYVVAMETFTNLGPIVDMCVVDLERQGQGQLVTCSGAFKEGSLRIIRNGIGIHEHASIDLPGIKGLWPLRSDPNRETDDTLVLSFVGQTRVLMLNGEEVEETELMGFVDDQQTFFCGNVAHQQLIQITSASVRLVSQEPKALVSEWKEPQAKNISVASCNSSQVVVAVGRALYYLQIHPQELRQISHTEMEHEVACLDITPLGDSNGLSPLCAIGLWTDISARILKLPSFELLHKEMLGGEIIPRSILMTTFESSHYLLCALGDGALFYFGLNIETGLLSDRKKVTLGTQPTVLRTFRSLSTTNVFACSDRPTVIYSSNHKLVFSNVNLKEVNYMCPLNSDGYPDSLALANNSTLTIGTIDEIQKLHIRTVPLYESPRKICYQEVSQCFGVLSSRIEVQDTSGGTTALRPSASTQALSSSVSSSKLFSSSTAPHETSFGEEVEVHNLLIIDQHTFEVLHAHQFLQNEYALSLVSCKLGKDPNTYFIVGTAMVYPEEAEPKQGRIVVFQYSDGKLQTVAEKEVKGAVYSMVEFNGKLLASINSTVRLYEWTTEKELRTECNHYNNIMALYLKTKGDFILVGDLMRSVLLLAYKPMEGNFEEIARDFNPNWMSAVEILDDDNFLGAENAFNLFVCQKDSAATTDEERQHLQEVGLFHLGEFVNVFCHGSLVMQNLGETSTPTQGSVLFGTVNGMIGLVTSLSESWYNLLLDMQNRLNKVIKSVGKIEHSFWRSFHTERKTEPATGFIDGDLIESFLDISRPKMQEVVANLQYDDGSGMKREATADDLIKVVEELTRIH

Compound	Western blot, % of protein reduction (MCL-1 protein) [%]	IC50 [1] [nM]	activity in viability assay in cardiomyocytes [1]	EC50 [2] [nM]	IC50 (MV-4-11 cells) [nM]
Cc1nn(C)c(C)c1-c1c(Cl)ccc2c(CCCOc3cccc4cc(F)ccc34)c(C(=O)O)n(CCN3CCN(C(=O)Cn4c(C)nc5c(C(=O)NC6CCC(=O)NC6=O)cccc54)CC3)c12 (centres unmarked) [Compound 268, 6-chloro-1-{2-[4-(2-{4-[(2,6-dioxopiperidin-3-yl)carbamoyl]-2-methyl-1H-1,3-benzodiazol-1-yl}acetyl)piperazin-1-yl]ethyl}-3-{3-[(6-fluoronaphthalen-1-yl)oxy]propyl}-7-(1,3,5-trimethyl-1H-pyrazol-4-yl)-1H-indole-2-carboxylic acid]	≥50	> 39800	much lower activity	< 10	
Cc1nn(C)c(C)c1-c1c(Cl)ccc2c(CCCOc3cccc4ccccc34)c(C(=O)O)n(CCN3CCN(C(=O)COc4cccc5c4C(=O)N(C4CCC(=O)NC4=O)C5=O)CC3)c12 (centres unmarked) [Compound 204, 6-chloro-1-(2-(4-(2-((2-(2,6-dioxopiperidin-3-yl)-1,3-dioxoisoindolin-4-yl)oxy)acetyl)piperazin-1-yl)ethyl)-3-(3-(naphthalen-1-yloxy)propyl)-7-(1,3,5-trimethyl-1H-pyrazol-4-yl)-1H-indole-2-carboxylic acid]	≥50				≤ 100
Cc1nn(C)c(C)c1-c1c(F)ccc2c(CCCOc3cccc4cc(F)ccc34)c(C(=O)O)n(CCN3CCN(C(=O)COc4cccc5c4C(=O)N(C4CCC(=O)NC4=O)C5=O)CC3)c12 (centres unmarked) [Compound 215, 1-{2-[4-(2-{[2-(2,6-dioxopiperidin-3-yl)-1,3-dioxo-2,3-dihydro-1H-isoindol-4-yl]oxy}acetyl)piperazin-1-yl]ethyl}-6-fluoro-3-{3-[(6-fluoronaphthalen-1-yl)oxy]propyl}-7-(1,3,5-trimethyl-1H-pyrazol-4-yl)-1H-indole-2-carboxylic acid]	≥50				≤ 100
Cc1nn(C)c(C)c1-c1c(Cl)ccc2c(CCCOc3cccc4cc(F)ccc34)c(C(=O)O)n(CCN3CCN(C(=O)COc4cccc5c4CN(C4CCC(=O)NC4=O)C5=O)CC3)c12 (centres unmarked) [Compound 220, 6-chloro-1-{2-[4-(2-{[2-(2,6-dioxopiperidin-3-yl)-1-oxo-2,3-dihydro-1H-isoindol-4-yl]oxy}acetyl)piperazin-1-yl]ethyl}-3-{3-[(6-fluoronaphthalen-1-yl)oxy]propyl}-7-(1,3,5-trimethyl-1H-pyrazol-4-yl)-1H-indole-2-carboxylic acid]	≥50	10000	much lower activity	< 100	≤ 31.6
Cc1nn2c(c1-c1c(Cl)ccc3c(CCCOc4cccc5cc(F)ccc45)c(C(=O)O)n(CCN4CCN(C(=O)COc5cccc6c5CN(C5CCC(=O)NC5=O)C6=O)CC4)c13)COCC2 (centres unmarked) [Compound 346, 6-Chloro-1-(2-(4-(2-((2-(2,6-dioxopiperidin-3-yl)-1-oxoisoindolin-4-yl)oxy)acetyl)piperazin-1-yl)ethyl)-3-(3-((6-fluoronaphthalen-1-yl)oxy)propyl)-7-(2-methyl-6,7-dihydro-4H-pyrazolo[5,1-c][1,4]oxazin-3-yl)-1H-indole-2-carboxylic acid]	≥50	10000	much lower activity		≤ 100
